Measurements reported in patent publication US10253039B2, “Inhibitors of bacterial DNA gyrase with efficacy against gram-negative bacteria” (priority 2014, dated 2019).
≈ marks a conversion by molar mass, not a printed value.

Assays:
Format in all cases: cell-based
E. coli BW25113 = assay: MIC, microdilution in 96-well plates; details: Escherichia coli, BW25113, B: E. coli BW25113; read-out: MIC
Method: (§1) A microdilution method in 96-well plates was used and the MIC protocol established by the Clinical Laboratory Standards Institute was followed. From a growing subculture, a 1:10000 inoculum of each strain in Luria-Bertani media was prepared and aliquoted 100 μL in 4 columns of wells, except for the top row wells, which contained 200 μL of inoculum. A solution of gyramide C2 was aliquoted into 3 of the wells containing 200 μL and DMSO was added to the 4th well. The liquid in each of wells was mixed with a multi-channel pipet and 100 μL was transferred to the next well and mixed. The 2-fold dilution was continued down the 96-well plate until 100 μL was left, which was discarded. The plates were incubated at 37° C. with shaking for 16-18 hours. The MIC was determined as the lowest concentration that inhibited growth and had no turbidity by visual inspection.
(§2) Minimum inhibitory concentrations of various gyramide compounds against 20 strains of bacteria were determined using the procedure described above.

Edwardsiella tarda = assay: MIC, microdilution in 96-well plates; details: D: Edwardsiella tarda
Method: as §1, §2

E. coli JW5503 (deltolC) = assay: MIC, 20-strain panel; details: Escherichia coli, C: E. coli JW5503 (deltolC)
Method: as §1, §2

E. coli MG1655 = assay: MIC, 20-strain panel; details: Escherichia coli, MG1655, A: E. coli MG1655; read-out: MIC
Method: as §1, §2

[1] = tested on: Klebsiella pneumoniae subsp. pneumoniae; assay: MIC, 20-strain panel; details: E: Klebsiella pneumoniae subsp. pneumoniae
Method: as §1, §2

[2] = tested on: Salmonella enterica subsp. enterica typhimurium; assay: MIC, 20-strain panel; details: F: Salmonella enterica subsp. enterica Typhimurium
Method: as §1, §2

Shigella flexneri = assay: MIC, 20-strain panel; details: G: Shigella flexneri
Method: as §1, §2

[3] = tested on: Staphylococcus aureus subsp. aureus; assay: MIC, 20-strain panel; details: H: Staphylococcus aureus subsp. aureus, read-out: MIC
Method: as §1, §2

[4] = tested on: Staphylococcus epidermidis; assay: MIC, 20-strain panel
Method: as §1, §2

[5] = tested on: Staphylococcus saprophyticus subsp. saprophyticus; assay: MIC, 20-strain panel
Method: as §1, §2

Streptococcus agalactiae = assay: MIC, 20-strain panel
Method: as §1, §2

Streptococcus pyogenes = assay: MIC, 20-strain panel
Method: as §1, §2

Row | SMILES | MIC (E. coli BW25113) [µg/mL] | MIC (Edwardsiella tarda) [µg/mL] | MIC (E. coli JW5503 (deltolC)) [µg/mL] | MIC (E. coli MG1655) [µg/mL] | MIC [1] [µg/mL] | MIC [2] [µg/mL] | MIC (Shigella flexneri) [µg/mL] | MIC [3] [µg/mL] | MIC [4] [µg/mL] | MIC [5] [µg/mL] | MIC (Streptococcus agalactiae) [µg/mL] | MIC (Streptococcus pyogenes) [µg/mL]
1 | O=S(=O)(N[C@@H]1CCN(Cc2ccc(-c3cccs3)cc2)C1)c1cccc(C(F)(F)F)c1 [Compound 32] | > 8 | > 8 | 1 (≈ 2.14 µM) | > 8 | > 8 | 8 (≈ 17.1 µM) | > 8 | > 8 | 8 (≈ 17.1 µM) | > 8 | > 8 | 8 (≈ 17.1 µM)
2 | O=S(=O)(N[C@@H]1CCN(Cc2ccc(-n3ccnn3)cc2)C1)c1cccc(OC(F)(F)F)c1 [Compound 33] | > 8 | > 8 | > 8 | > 8 | > 8 | > 8 | > 8 | > 8 | > 8 | > 8 | > 8 | > 8
3 | N#Cc1cccc(S(=O)(=O)N[C@@H]2CCN(Cc3nc(-c4ccccc4)cs3)C2)c1 [Compound 34] | > 8 | > 8 | > 8 | > 8 | > 8 | > 8 | > 8 | > 8 | > 8 | > 8 | > 8 | > 8
4 | O=S(=O)(N[C@@H]1CCN(Cc2ccc(-n3cccn3)cc2)C1)c1cccc(C(F)(F)F)c1 [Compound 35] | > 8 | > 8 | 1 (≈ 2.22 µM) | > 8 | > 8 | > 8 | > 8 | > 8 | > 8 | > 8 | > 8 | > 8
5 | O=S(=O)(N[C@@H]1CCN(Cc2ccc(-c3nccs3)cc2)C1)c1cccc(OC(F)(F)F)c1 [Compound 36] | > 8 | > 8 | 2 (≈ 4.14 µM) | > 8 | > 8 | > 8 | > 8 | > 8 | > 8 | > 8 | > 8 | > 8
6 | O=S(=O)(N[C@@H]1CCN(Cc2ccc(-c3ccccc3)cc2)C1)c1cc(S(=O)(=O)c2ccccc2)cs1 [Compound 37] | > 8 | > 8 | > 8 | > 8 | > 8 | > 8 | > 8 | > 8 | > 8 | > 8 | > 8 | > 8
7 | O=S(=O)(N[C@@H]1CCN(Cc2ccc(OC3CCOCC3)cc2)C1)c1cccc(C(F)(F)F)c1 [Compound 38] | > 8 | > 8 | 1 (≈ 2.06 µM) | > 8 | > 8 | > 8 | > 8 | > 8 | > 8 | > 8 | > 8 | > 8
8 | O=S(=O)(N[C@@H]1CCN(Cc2ccc(OC3CCOCC3)cc2)C1)c1cccc(OC(F)(F)F)c1 [Compound 39] | > 8 | > 8 | 1 (≈ 2 µM) | > 8 | > 8 | > 8 | > 8 | > 8 | > 8 | > 8 | > 8 | > 8
9 | N#Cc1cccc(S(=O)(=O)N[C@@H]2CCN(Cc3ccc(OC4CCCC4)cc3)C2)c1 [Compound 40] | > 8 | > 8 | 0.5 (≈ 1.17 µM) | > 8 | > 8 | 4 (≈ 9.4 µM) | > 8 | > 8 | > 8 | > 8 | > 8 | > 8
10 | O=S(=O)(N[C@@H]1CCN(Cc2ccc(OC3CCCC3)cc2)C1)c1cccc(C(F)(F)F)c1 [Compound 41] | > 8 | > 8 | 0.5 (≈ 1.07 µM) | > 8 | > 8 | 8 (≈ 17.1 µM) | > 8 | ~8 (≈ 17.1 µM) | 8 (≈ 17.1 µM) | > 8 | > 8 | > 8
11 | COc1cc(CN2CC[C@@H](NS(=O)(=O)c3cccc(C(F)(F)F)c3)C2)ccc1OC(C)C [Compound 42] | > 8 | > 8 | > 8 | > 8 | > 8 | > 8 | > 8 | > 8 | > 8 | > 8 | > 8 | > 8
